Results taken from patent US20080119521A1, “Butyrlcholinesterase Selective Inhibitors” (priority 2004, published 2008).
Read-outs that look alike come from different tables or passages of the source.

Key:
[1] = test system: human neuroblastoma cell line SH-SY5Y; assay: Toxicity measurement, LDH release cytotoxicity; format: cell-based; settings: SH-SY5Y cells, 24 hours exposure
Method: The cytotoxicity effect of the molecules was tested in the human neuroblastoma cell line SH-SY5Y. These cells were cultured in 96-well plates in a 1:1 mixture of Ham's F12 nutrients and essential medium (MEM), supplemented with 10% fetal bovine serum and 1% penicillin/streptomycin, and grown in a 5% CO2 humidified incubator at 37° C.
The cells were plated at 10^4 cells for each well, at least, 48 hours before the toxicity measure. Cells were exposed for 24 hours to the compounds at different concentrations (from 10^−5 to 10^−9), quantitative assessment of cell death was made by measurement of the intracellular enzyme lactate dehydrogenase (LDH) (citotoxicity detection kit, Roche). The quantity of LDH was measured and evaluated in a microplate reader Anthos 2010, at 492 and 620 nm. Controls were taken as 100% viability.

[2] = biological target: T1, AChE from bovine erythrocytes (Bos taurus, UniProt P23795); assay: Acetylcholinesterase (AChE) inhibition, Ellman colorimetric method; format: biochemical
T1 construct: 0.2 unit/ml AChE (Sigma Chemical Co. from bovine erythrocytes); purchased Sigma Chemical Co; host or cells: bovine erythrocytes
T1 sequence (P23795 31-614 isoform P23795-2 limits assumed): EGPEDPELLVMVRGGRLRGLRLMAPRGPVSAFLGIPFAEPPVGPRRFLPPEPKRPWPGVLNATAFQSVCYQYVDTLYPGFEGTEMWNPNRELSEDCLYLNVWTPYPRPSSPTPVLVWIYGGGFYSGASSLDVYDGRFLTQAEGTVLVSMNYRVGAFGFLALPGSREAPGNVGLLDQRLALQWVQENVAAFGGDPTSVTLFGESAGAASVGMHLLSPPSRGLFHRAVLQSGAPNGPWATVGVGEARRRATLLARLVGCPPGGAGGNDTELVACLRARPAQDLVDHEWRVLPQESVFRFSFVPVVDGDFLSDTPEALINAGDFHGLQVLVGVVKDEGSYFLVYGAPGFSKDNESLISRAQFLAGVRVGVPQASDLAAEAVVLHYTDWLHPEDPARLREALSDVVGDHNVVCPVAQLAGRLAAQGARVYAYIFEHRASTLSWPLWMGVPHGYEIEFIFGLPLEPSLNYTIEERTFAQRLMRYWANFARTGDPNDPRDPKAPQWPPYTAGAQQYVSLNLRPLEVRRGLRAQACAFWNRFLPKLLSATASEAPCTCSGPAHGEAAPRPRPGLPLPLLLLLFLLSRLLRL
Method: Acetylcholinesterase (AChE) Inhibition (from Bovine Erythrocytes)
AChE inhibitory activity was evaluated at 30° C. by the colorimetric method reported by Ellman [Ellman, G. L.; Courtney, K. D.; Andres, B.; Featherstone, R. M. Biochem. Pharmacol. 1961, 7, 88-95]. The assay solution consisted of 0.1 M phosphate buffer pH 8, 0.3 mM 5,5′-dithiobis (2-nitrobenzoic acid) (DTNB, Ellman's reagent), 0.2 unit/ml AChE (Sigma Chemical Co. from bovine erythrocytes), and 0.5 mM acetylthiocholine iodide as the substrate of the enzymatic reaction. The compounds tested were added to the assay solution and pre incubated with the enzyme for 5 min at 30° C. After that period, the substrate was added. The absorbance changes at 405 nm were recorded for 5 min with a microplate reader Digiscan 340T, the reaction rates were compared, and the percent inhibition due to the presence of test compounds was calculated. The reaction rate was calculated with, at least, triplicate measurements, and the percent inhibition due to the presence of test compound was calculated relative to the compound-free control. The compound concentration producing 50% of AChE inhibition (IC50) was determined.

BuChE from human serum = biological target: T2, BuChE from human serum (Homo sapiens, UniProt P06276); assay: Butyrylcholinesterase (BuChE) inhibition, Ellman colorimetric method; format: biochemical
T2 construct: 0.1 unit/ml BuChE from human serum; from tissue; host or cells: human serum
T2 sequence (P06276 29-602): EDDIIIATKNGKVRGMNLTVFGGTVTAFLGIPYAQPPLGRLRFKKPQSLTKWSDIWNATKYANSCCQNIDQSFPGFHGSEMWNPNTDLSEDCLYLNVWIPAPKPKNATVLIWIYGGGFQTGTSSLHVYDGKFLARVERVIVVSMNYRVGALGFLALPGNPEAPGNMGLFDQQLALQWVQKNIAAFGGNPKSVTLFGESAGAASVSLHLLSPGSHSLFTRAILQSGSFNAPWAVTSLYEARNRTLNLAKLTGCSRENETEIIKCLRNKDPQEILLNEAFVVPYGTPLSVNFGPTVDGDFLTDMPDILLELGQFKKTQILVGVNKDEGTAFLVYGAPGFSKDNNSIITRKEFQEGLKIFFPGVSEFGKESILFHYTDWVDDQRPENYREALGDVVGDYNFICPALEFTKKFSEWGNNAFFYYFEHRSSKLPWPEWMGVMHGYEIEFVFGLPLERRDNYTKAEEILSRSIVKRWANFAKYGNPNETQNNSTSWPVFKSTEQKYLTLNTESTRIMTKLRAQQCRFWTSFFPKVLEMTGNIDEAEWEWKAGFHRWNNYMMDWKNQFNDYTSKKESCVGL
Method: Butyrylcholinesterase (BuChE) Inhibition (from Human Serum)
BuChE inhibitory activity was evaluated at 30° C. by the colorimetric method reported by Ellman [Ellman, G. L.; Courtney, K. D.; Andres, B.; Featherstone, R. M. Biochem. Pharmacol. 1961, 7, 88-95]. The assay solution consisted of 0.1 unit/ml BuChE from human serum, 0.1 M sodium phosphate buffer pH 8, 0.3 mM 5,5′-dithiobis (2-nitrobenzoic acid) (DTNB, Ellman's reagent), and 0.5 mM butyrylthiocholine iodide as the substrate of the enzymatic reaction. Enzyme activity was determined by measuring the absorbance at 405 nm during 5 minutes with a microplate reader Digiscan 340T. The tested compounds were preincubated with the enzyme for 10 minutes at 30° C. The reaction rate was calculated with, at least, triplicate measurements. The IC50 is defined as the concentration of each compound that reduces a 50% the enzymatic activity with respect to that without inhibitors.

AChE peripheral site = AChE peripheral site (Homo sapiens, UniProt P22303); assay: Propidium competition, fluorescence; format: binding; settings: 5 μM AChE incubated at least 6 hours, 20 μM propidium iodide, 1 mM Tris/HCl pH 8.0
Sequence of AChE peripheral site (P22303 32-614): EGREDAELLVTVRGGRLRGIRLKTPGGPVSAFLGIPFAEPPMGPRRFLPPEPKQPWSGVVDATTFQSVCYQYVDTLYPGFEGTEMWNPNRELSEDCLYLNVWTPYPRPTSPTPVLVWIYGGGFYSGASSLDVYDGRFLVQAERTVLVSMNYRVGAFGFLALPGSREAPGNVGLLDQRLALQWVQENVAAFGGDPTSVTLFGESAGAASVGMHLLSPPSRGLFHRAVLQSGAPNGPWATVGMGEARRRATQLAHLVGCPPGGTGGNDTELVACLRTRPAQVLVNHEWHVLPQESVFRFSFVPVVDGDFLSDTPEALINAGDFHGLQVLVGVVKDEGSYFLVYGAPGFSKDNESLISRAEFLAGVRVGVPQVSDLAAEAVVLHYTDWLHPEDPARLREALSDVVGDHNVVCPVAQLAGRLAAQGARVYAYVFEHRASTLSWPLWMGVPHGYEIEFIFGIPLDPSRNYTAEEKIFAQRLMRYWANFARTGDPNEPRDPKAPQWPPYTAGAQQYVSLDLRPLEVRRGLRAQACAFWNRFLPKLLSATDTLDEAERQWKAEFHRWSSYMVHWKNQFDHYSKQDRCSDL
Method: Fluorescence was measured in a Fluostar optima plate reader (BMG). Measurements were carried out in 100 μl solution volume, in 96-well plates. The buffer used was 1 mM Tris/HCl, pH 8.0. 5 μM AchE was incubated, at least 6 hours, with the molecules at different concentrations. 20 μM propidium iodide was added 10 min before fluorescence measurement. The excitation wavelength was 485 nm, and that of emission, 620 nm.

| Compound | Toxicity [1] | IC50 [2] | IC50 (BuChE from human serum) | Propidium competition (AChE peripheral site) | selectivity with respect to AChE (BuChE from human serum; BuChE versus AChE) | IC50 ([2]; AChE from bovine erythrocytes, 30° C., pH 8, 5 min preincubation, acetylthiocholine iodide substrate, read-out: IC50 AChE) | IC50 (BuChE from human serum; BuChE from human serum, 30° C., pH 8, 10 min preincubation, butyrylthiocholine iodide substrate, read-out: IC50 BuChE) |
| --- | --- | --- | --- | --- | --- | --- | --- |
| O=C(Cc1c[nH]c2ccccc12)NCCC1CCN(Cc2ccccc2)CC1 [Compound 1, N-[2-(1-Benzyl-piperidin-4-yl)-ethyl]-2-(lH-indol-3-yl)-acetamide] | >100 µM | 200 nM | 0.8 nM | 1 µM |  |  |  |
| Cn1cc(CC(=O)NCCC2CCN(Cc3ccccc3)CC2)c2ccccc21 [Compound 2, N-[2-(1-Benzyl-piperidin-4-yl)-ethyl]-2-(1-methyl-1H-indol-3-yl)-acetamide] | >100 µM | 400 nM | 1 nM | 100 µM |  |  |  |
| Cc1[nH]c2ccccc2c1CC(=O)NCCC1CCN(Cc2ccccc2)CC1 [Compound 3, N-[2-(1-Benzyl-piperidin-4-yl)-ethyl]-2-(2-methyl-1H-indol-3-yl)-acetamide] | >100 µM | 200 nM | 2 nM | 100 µM |  |  |  |
| O=C(Cc1c[nH]c2ccc(Br)cc12)NCCC1CCN(Cc2ccccc2)CC1 [Compound 4, N-[2-(1-Benzyl-piperidin-4-yl)-ethyl]-2-(5-bromo-1H-indol-3-yl)-acetamide] | >100 µM | 250 nM | 0.25 nM | 1 µM |  |  |  |
| O=C(CCc1c[nH]c2ccccc12)NCCC1CCN(Cc2ccccc2)CC1 [Compound 5, N-[2-(1-Benzyl-piperidin-4-yl)-ethyl]-3-(1H-indol-3-yl)-propionamide] | >100 µM | 2000 nM | 0.05 nM | 100 µM | 5 orders of magnitude |  |  |
| O=C(CCCc1c[nH]c2ccccc12)NCCC1CCN(Cc2ccccc2)CC1 [Compound 6, N-[2-(1-Benzyl-piperidin-4-yl)-ethyl]-4-(1H-indol-3-yl)-butyramide] | >100 µM | 300 nM | 5 nM | 100 µM |  |  |  |
| O=C(NCCC1CCN(Cc2ccccc2)CC1)OCCc1c[nH]c2ccccc12 [Compound 7, [2-(1-Benzyl-piperidin-4-yl)-ethyl]-carbamic acid 2-(1H-indol-3-yl)-ethyl ester] | >100 µM |  |  |  |  | 1000 nM | 30 nM |
